Measurements from US10562908B2, “Ortho substituted phenylpyrazolo- and phenylpyrrolo-pyridazine derivatives having multimodal activity against pain” (priority 2016, dated 2020).
Read-outs that look alike come from different tables or passages of the source.

Legend:
[1] = molecular target: T1, human μ-opioid receptor (Homo sapiens, UniProt P35372); assay: Human μ-opioid receptor radioligand assay ([3H]-DAMGO); assay type: binding
T1 construct: expressed in transfected cells; host or cells: CHO-K1
Summary of the method: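 Transfected CHO-K1 membranes (20 μg) incubated with 1 nM [3H]-DAMGO in 50 mM Tris-HCl, 5 mM MgCl2, pH 7.4, 60 min at 27 °C; non-specific binding with 10 μM naloxone. Test compound at five concentrations; bound radioactivity counted after filtration by scintillation.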

[2] = molecular target: Human α2δ-1 subunit of Cav2.2 calcium channel (Homo sapiens, UniProt P54289); assay: Human α2δ-1 subunit of Cav2.2 calcium channel assay ([3H]-Gabapentin); assay type: binding
Summary of the method: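 α2δ-1-enriched membranes (2.5 μg) were incubated with 15 nM [3H]-gabapentin in 10 mM Hepes-KOH pH 7.4 for 60 min at 27 °C. Non-specific binding was defined with 10 μM pregabalin. Compounds were tested at five concentrations, with filtration and scintillation counting.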

[3] = transfected CHO-K1 cell membranes, 1 nM [3H]-DAMGO, read-out: Binding μ (Ki)
[4] = human α2δ-1 enriched membranes, 15 nM [3H]-Gabapentin, read-out: Binding α2δ-1 (Ki)

Chain of Human α2δ-1 subunit of Cav2.2 calcium channel (P54289 25-1103): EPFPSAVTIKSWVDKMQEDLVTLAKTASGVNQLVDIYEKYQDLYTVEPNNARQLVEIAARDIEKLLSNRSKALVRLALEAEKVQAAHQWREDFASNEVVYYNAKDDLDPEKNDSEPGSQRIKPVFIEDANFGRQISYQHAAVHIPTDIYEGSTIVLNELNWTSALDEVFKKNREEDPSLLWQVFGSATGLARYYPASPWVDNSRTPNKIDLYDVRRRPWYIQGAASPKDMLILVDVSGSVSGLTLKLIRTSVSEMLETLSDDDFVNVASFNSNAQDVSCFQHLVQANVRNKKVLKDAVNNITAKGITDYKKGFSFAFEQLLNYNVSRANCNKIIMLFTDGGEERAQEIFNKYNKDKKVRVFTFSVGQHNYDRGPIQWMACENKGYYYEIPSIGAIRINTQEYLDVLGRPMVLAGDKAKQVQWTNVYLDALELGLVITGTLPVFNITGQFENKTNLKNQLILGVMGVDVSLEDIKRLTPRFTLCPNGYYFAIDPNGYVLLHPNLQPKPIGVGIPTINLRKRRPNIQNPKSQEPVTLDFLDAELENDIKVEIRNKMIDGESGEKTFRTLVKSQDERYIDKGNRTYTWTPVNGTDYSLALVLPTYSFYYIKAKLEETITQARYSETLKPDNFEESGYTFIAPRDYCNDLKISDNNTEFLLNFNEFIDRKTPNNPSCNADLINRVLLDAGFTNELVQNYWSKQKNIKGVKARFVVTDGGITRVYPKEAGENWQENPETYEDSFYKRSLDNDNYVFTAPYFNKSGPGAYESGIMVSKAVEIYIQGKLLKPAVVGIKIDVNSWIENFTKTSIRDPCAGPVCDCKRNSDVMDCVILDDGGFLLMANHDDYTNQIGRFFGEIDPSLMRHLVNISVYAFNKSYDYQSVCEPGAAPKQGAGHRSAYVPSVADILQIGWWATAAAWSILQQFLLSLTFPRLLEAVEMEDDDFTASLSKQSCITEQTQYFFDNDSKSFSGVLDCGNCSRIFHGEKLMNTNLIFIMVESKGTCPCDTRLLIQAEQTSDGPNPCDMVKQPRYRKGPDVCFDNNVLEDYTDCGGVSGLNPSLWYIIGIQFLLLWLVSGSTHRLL
T1 sequence (P35372 whole entry): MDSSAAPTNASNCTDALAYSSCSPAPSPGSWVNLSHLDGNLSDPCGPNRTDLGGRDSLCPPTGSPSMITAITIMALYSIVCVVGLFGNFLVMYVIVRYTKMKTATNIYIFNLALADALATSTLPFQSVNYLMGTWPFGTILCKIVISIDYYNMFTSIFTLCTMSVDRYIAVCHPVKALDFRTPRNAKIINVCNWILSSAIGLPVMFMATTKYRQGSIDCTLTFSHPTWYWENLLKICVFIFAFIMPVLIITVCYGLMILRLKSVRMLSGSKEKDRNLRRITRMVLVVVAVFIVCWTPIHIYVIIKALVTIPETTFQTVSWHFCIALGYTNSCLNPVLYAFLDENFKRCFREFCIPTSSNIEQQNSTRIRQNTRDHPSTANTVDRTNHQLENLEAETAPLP

SMILES	Ki [1, 3] [nM]	Ki [2, 4] [nM]	Ki [1] [nM]	Ki [2] [nM]
Cc1nnc(N(C)C)c2nn(-c3ccccc3OC(c3ccccc3)C3CCNCC3)c(C)c12 (stereo not shown) [Example 11, N,N,3,4-tetramethyl-2-(2-(phenyl(piperidin-4-yl)methoxy)phenyl)-2H-pyrazolo[3,4-d]pyridazin-7-amine]	> 500	500 to 5000		
CCOc1cccc(C(CCNC)Oc2ccccc2-n2nc3c(N(C)C)nnc(C)c3c2C)c1 (stereo not shown) [Example 90, 2-(2-(1-(3-ethoxyphenyl)-3-(methylamino)propoxy)phenyl)-N,N,3,4-tetramethyl-2H-pyrazolo[3,4-d]pyridazin-7-amine]	> 500	500 to 5000		
Cc1nnc(N(C)C)c2nn(-c3ccccc3OCC3CCNCC3)c(C)c12 [Example 3, N,N,3,4-tetramethyl-2-(2-(piperidin-4-ylmethoxy)phenyl)-2H-pyrazolo[3,4-d]pyridazin-7-amine]	> 500	> 5000		
CNCCC(Oc1ccc(C(N)=O)cc1-n1nc2c(N(C)C)nnc(C)c2c1C)c1ccccc1 (stereo not shown) [Example 93, 3-(7-(dimethylamino)-3,4-dimethyl-2H-pyrazolo[3,4-d]pyridazin-2-yl)-4-(3-(methylamino)-1-phenylpropoxy)benzamide]	> 500	> 5000		
CNCCC(Oc1ccccc1-n1nc2c(N(C)C)nnc(C)c2c1C)c1ccccc1 (stereo not shown) [Example 6, N,N,3,4-tetramethyl-2-(2-(3-(methylamino)-1-phenylpropoxy)phenyl)-2H-pyrazolo[3,4-d]pyridazin-7-amine]			100 to 500	500 to 5000
CCNCCC(Oc1ccccc1-n1nc2c(N(C)C)nnc(C)c2c1C)c1cccc(F)c1 (stereo not shown) [Example 47, 2-(2-(3-(ethylamino)-1-(3-fluorophenyl)propoxy)phenyl)-N,N,3,4-tetramethyl-2H-pyrazolo[3,4-d]pyridazin-7-amine]			100 to 500	< 500
Cc1nnc(N(C)C)c2nn(-c3ccccc3OC(CCNCC3CC3)c3ccccc3)c(C)c12 (stereo not shown) [Example 20, 2-(2-(3-((cyclopropylmethyl)amino)-1-phenylpropoxy)phenyl)-N,N,3,4-tetramethyl-2H-pyrazolo[3,4-d]pyridazin-7-amine]			100 to 500	500 to 5000
CNCCC(Oc1cc(N2CCCC2=O)ccc1-n1nc2c(N(C)C)nnc(C)c2c1C)c1ccccc1 (stereo not shown) [Example 80, 1-(4-(7-(Dimethylamino)-3,4-dimethyl-2H-pyrazolo[3,4-d]pyridazin-2-yl)-3-(3-(methylamino)-1-phenylpropoxy)phenyl)pyrrolidin-2-one]	> 500	500 to 5000		
CNCCC(Oc1cc(C(N)=O)ccc1-n1nc2c(N(C)C)nnc(C)c2c1C)c1ccccc1 (stereo not shown) [Example 94, 4-(7-(dimethylamino)-3,4-dimethyl-2H-pyrazolo[3,4-d]pyridazin-2-yl)-3-(3-(methylamino)-1-phenylpropoxy)benzamide]	> 500	> 5000		
CNCc1ccccc1COc1ccccc1-n1nc2c(N(C)C)nnc(C)c2c1C [Example 72, N,N,3,4-Tetramethyl-2-(2-((2-((methylamino)methyl)benzyl)oxy)phenyl)-2H-pyrazolo[3,4-d]pyridazin-7-amine]	> 500	500 to 5000		
CNCCC(Oc1cc(O)ccc1-n1nc2c(N(C)C)nnc(C)c2c1C)c1ccccc1 (stereo not shown) [Example 98, 4-(7-(dimethylamino)-3,4-dimethyl-2H-pyrazolo[3,4-d]pyridazin-2-yl)-3-(3-(methylamino)-1-phenylpropoxy)phenol]	> 500	500 to 5000		
CNCCC(Oc1ccccc1-n1nc2c(N3CCOCC3)nnc(C)c2c1C)c1ccccc1 (stereo not shown) [Example 23, 3-(2-(3,4-dimethyl-7-morpholino-2H-pyrazolo[3,4-d]pyridazin-2-yl)phenoxy)-N-methyl-3-phenylpropan-1-amine]	> 500	500 to 5000		
CNCCC(Oc1ccccc1-n1nc2c(N(C)CCO)nnc(C)c2c1C)c1ccccc1 (stereo not shown) [Example 59, 2-((3,4-Dimethyl-2-(2-(3-(methylamino)-1-phenylpropoxy)phenyl)-2H-pyrazolo[3,4-d]pyridazin-7-yl)(methyl)amino)etanol]	> 500	500 to 5000		
Cc1nnc(N(C)C)c2nn(-c3ccccc3OC(c3ccccc3)C3CNC3)c(C)c12 (stereo not shown) [Example 34, 2-(2-(azetidin-3-yl(phenyl)methoxy)phenyl)-N,N,3,4-tetramethyl-2H-pyrazolo[3,4-d]pyridazin-7-amine]	> 500	500 to 5000		
CNCCC(Oc1ccccc1-n1c(C)c2c(C)nnc(C)c2c1C)c1ccccc1 (stereo not shown) [Example 65, N-Methyl-3-phenyl-3-(2-(1,4,5,7-tetramethyl-6H-pyrrolo[3,4-d]pyridazin-6-yl)phenoxy)propan-1-amine]			100 to 500	500 to 5000
CNCCC(Cc1ccccc1)Oc1ccccc1-n1nc2c(N(C)C)nnc(C)c2c1C (stereo not shown) [Example 77, N,N,3,4-tetramethyl-2-(2-((4-(methylamino)-1-phenylbutan-2-yl)oxy)phenyl)-2H-pyrazolo[3,4-d]pyridazin-7-amine]	> 500	500 to 5000		
COCCNCCC(Oc1ccccc1-n1nc2c(N(C)C)nnc(C)c2c1C)c1ccccc1 (stereo not shown) [Example 26, 2-(2-(3-((2-methoxyethyl)amino)-1-phenylpropoxy)phenyl)-N,N,3,4-tetramethyl-2H-pyrazolo[3,4-d]pyridazin-7-amine]	> 500	500 to 5000		
COCC(CCN(C)Cc1ccccc1)Oc1ccccc1-n1nc2c(N(C)C)nnc(C)c2c1C (stereo not shown) [Example 43, 2-(2-((4-(benzyl(methyl)amino)-1-methoxybutan-2-yl)oxy)phenyl)-N,N,3,4-tetramethyl-2H-pyrazolo[3,4-d]pyridazin-7-amine]	> 500	500 to 5000		
CNCCC(Oc1ccccc1-n1nc2c(N(C)C)nnc(C)c2c1C)C1CCOCC1 (stereo not shown) [Example 16, N,N,3,4-tetramethyl-2-(2-(3-(methylamino)-1-(tetrahydro-2H-pyran-4-yl)propoxy)phenyl)-2H-pyrazolo[3,4-d]pyridazin-7-amine]	> 500	> 5000		
CNCCC(Oc1ccccc1-n1nc2c(N3CCC3)nnc(C)c2c1C)c1ccccc1 (stereo not shown) [Example 39, 3-(2-(7-(azetidin-1-yl)-3,4-dimethyl-2H-pyrazolo[3,4-d]pyridazin-2-yl)phenoxy)-N-methyl-3-phenylpropan-1-amine]	> 500	500 to 5000		
CNCCCOc1ccccc1-n1nc2c(N(C)C)nnc(C)c2c1C [Example 4, N,N,3,4-tetramethyl-2-(2-(3-(methylamino)propoxy)phenyl)-2H-pyrazolo[3,4-d]pyridazin-7-amine]	> 500	500 to 5000		
CNCCC(Oc1ccccc1-n1nc2c(C(C)C)nnc(C)c2c1C)c1ccccc1 (stereo not shown) [Example 70, 3-(2-(7-isopropyl-3,4-dimethyl-2H-pyrazolo[3,4-d]pyridazin-2-yl)phenoxy)-N-methyl-3-phenylpropan-1-amine]	> 500	> 5000		
CNCC[C@@H](Oc1ccccc1-n1nc2c(N(C)C)nnc(C)c2c1C)c1cccc(F)c1 [Example 104, (R)-2-(2-(1-(3-fluorophenyl)-3-(methylamino)propoxy)phenyl)-N,N,3,4-tetramethyl-2H-pyrazolo[3,4-d]pyridazin-7-amine]			100 to 500	500 to 5000
CNCCC(Oc1ccccc1-n1nc2c(N(C)CCOC)nnc(C)c2c1C)c1ccccc1 (stereo not shown) [Example 60, N-(2-methoxyethyl)-N,3,4-trimethyl-2-(2-(3-(methylamino)-1-phenylpropoxy)phenyl)-2H-pyrazolo[3,4-d]pyridazin-7-amine]	> 500	500 to 5000		
CNCCC(Oc1ccccc1-n1nc2c(NCc3ccccc3)nnc(C)c2c1C)c1ccccc1 (stereo not shown) [Example 7, N-benzyl-3,4-dimethyl-2-(2-(3-(methylamino)-1-phenylpropoxy)phenyl)-2H-pyrazolo[3,4-d]pyridazin-7-amine]	> 500	500 to 5000		
CNCCC(Oc1ccccc1-n1nc2c(N(C)C)nnc(C)c2c1C)c1cccs1 (stereo not shown) [Example 78, N,N,3,4-Tetramethyl-2-(2-(3-(methylamino)-1-(thiophen-2-yl)propoxy)phenyl)-2H-pyrazolo[3,4-d]pyridazin-7-amine]			100 to 500	500 to 5000
CNCCC(C)Oc1ccccc1-n1nc2c(N(C)C)nnc(C)c2c1C (stereo not shown) [Example 10, N,N,3,4-tetramethyl-2-(2-((4-(methylamino)butan-2-yl)oxy)phenyl)-2H-pyrazolo[3,4-d]pyridazin-7-amine]	> 500	500 to 5000		
CNCCC(Oc1ccccc1-n1nc2c(N(C)C)nnc(C)c2c1C)c1ccc(F)cc1 (stereo not shown) [Example 42, 2-(2-(1-(4-fluorophenyl)-3-(methylamino)propoxy)phenyl)-N,N,3,4-tetramethyl-2H-pyrazolo[3,4-d]pyridazin-7-amine]			> 500	< 500
CNCC[C@@H](Oc1ccccc1-n1nc2c(N(C)C)nnc(C)c2c1C)c1ccccc1 [Example 100, (R)-N,N,3,4-tetramethyl-2-(2-(3-(methylamino)-1-phenylpropoxy)phenyl)-2H-pyrazolo[3,4-d]pyridazin-7-amine]			> 500	500 to 5000
